# Assay results as given in US20260206761A1, “HETEROARYL-TRIAZOLE COMPOUNDS AS PESTICIDES” (Bayer Aktiengesellschaft, priority 2019, published 2026).
# Key:
# Type in all cases: in vivo
# [1] = system: Rhipicephalus microplus larvae (strain Parkhurst, resistant against synthetic pyrethroids); test: Rhipicephalus (Boophilus) microplus in-vitro contact test, larval cattle tick; conditions: after 48 hours, read-out: activity (efficacy: larvae dead or moribund); for pest or weed control at 100 g/ha: application rate 1 pg/cm^2 (=100 g/ha); for pest or weed control at 500 g/ha: application rate 5 pg/cm^2 (=500 g/ha)
# Summary of the method: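 Larvae (20-50 per tube) exposed to dry compound film on glass tube walls, 5 μg/cm^2 at 900 ppm, applied from acetone. After 48 h at 27° C./85% RH, tubes tapped and negative geotaxis scored; efficacy as percent dead or moribund larvae.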
# [2] = system: adult engorged female ticks (Rhipicephalus microplus); test: Rhipicephalus (Boophilus) microplus injection test; conditions: 168 h, egg deposition after 7 days, read-out: activity (efficacy: infertile eggs); for pest or weed control at 4 pg: application rate 4 pg/animal; for pest or weed control at 0.02 mg: application rate 20 μg/animal
# Summary of the method: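 Abdominal injection, 1 μL compound/DMSO, n=5 engorged adult females; climate-chamber incubation. Readout d7: fertile egg laying; doubtful eggs held to hatch (~42 d). % efficacy = infertile eggs (100% all infertile).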
# [3] = system: adult unfed cat fleas (Ctenocephalides felis); test: Ctenocephalides felis oral test; conditions: 48 h, read-out: activity (mortality)
# Experimental: Ctenocephalides felis—Oral Test
# Solvent: dimethyl sulfoxide
# To produce a suitable preparation of active compound, 10 mg of active compound are dissolved in 0.5 mL solvent, and the concentrate is diluted with cattle blood to the desired concentration.
# Approximately 20 adult unfed cat fleas (Ctenocephalides felis) are placed in flea chambers. The blood chamber, sealed with parafilm on the bottom, are filled with cattle blood supplied with compound solution and placed on the gauze covered top of the flea chamber, so that the fleas are able to suck the blood. The blood chamber is heated to 37° C. whereas the flea chamber is kept at room temperature.
# After 2 days mortality in % is determined. 100% means all the fleas have been killed; 0% means none of the fleas have been killed.
# [4] = system: green peach aphid (Myzus persicae); test: Myzus persicae oral test; conditions: 120 h, application rate 4 ppm, after 5 days
# Summary of the method: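 Aphids of mixed population ingest the compound preparation by sucking through a parafilm sheet stretched over wells holding test solution plus IPL41 insect medium (33%+15% sugar). Kill rate in percent is determined five days later.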
# [5] = system: fall armyworm larvae (Spodoptera frugiperda); test: Spodoptera frugiperda spray test; conditions: 168 h, read-out: activity (mortality)
# Summary of the method: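 Larvae of fall armyworm placed on dried maize leaf sections previously sprayed with emulsified compound (acetone/DMF solvent, water with 1000 ppm emulsifier). Percent of caterpillars killed recorded on day 7, 0–100% scale.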
# [6] = system: larvae of the banded cucumber beetle (Diabrotica balteata); test: Diabrotica balteata spray test; conditions: 168 h, after 7 days, read-out: activity (efficacy: seedlings grown); for pest or weed control at 500 g/ha: application rate 500 g/ha (=160 pg/well); for pest or weed control at 100 g/ha: application rate 100 g/ha (=32 pg/well)
# Summary of the method: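 Read-out is % efficacy at day 7, 0% meaning no seedling growth and 100% growth equal to uninfested untreated controls. Test solutions (acetone/DMF concentrate diluted with water carrying 1000 ppm emulsifier) were sprayed onto 1-day-germinated wheat seeds, 5 per well, before infestation with 10-20 larvae.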
# [7] = system: adult brown dog ticks (Rhipicephalus sanguineus); test: Rhipicephalus sanguineus in-vitro contact test, adult brown dog ticks; conditions: after 48 hours, read-out: activity (efficacy: ticks dead or moribund)
# Summary of the method: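 Read-out: % efficacy as dead or moribund ticks, judged 48 h after exposure by failure to climb away from a 45-50° C heating plate within 5 min. Tubes were coated with acetone solution (900 ppm = 5 μg/cm^2 surface dose) and held 5-10 adults each at room temperature.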
# [8] = system: larvae of the southern green stink bug (Nezara viridula); test: Nezara viridula spray test; conditions: 96 h, after 4 days; for mortality at 500 g/ha: application rate 500 g/ha; for mortality at 100 g/ha: application rate 100 g/ha
# Experimental: Nezara viridula—Spray Test
# Solvent: 78.0 parts by weight of acetone • • 1.5 parts by weight of dimethylformamide
# (§1) Emulsifier: alkylarylpolyglycol ether
# To produce a suitable preparation of active compound, 1 part by weight of active compound is mixed with the stated amount of solvent, and the concentrate is diluted with water, containing an emulsifier concentration of 1000 ppm, to the desired concentration. Further test concentrations are prepared by dilution with emulsifier containing water.
# Barley plants (Hordeum vulgare) infested with larvae of the southern green stink bug (Nezara viridula) are sprayed with a test solution containing the desired concentration of the active ingredient.
# After 4 days mortality in % is determined. 100% means all the stink bugs have been killed; 0% means none of the stink bugs have been killed.
# [9] = system: green peach aphid (Myzus persicae); test: Myzus persicae spray test; conditions: 120 h, after 5 days; for mortality at 100 g/ha: application rate 100 g/ha
# Experimental: Myzus persicae—Spray Test
# Solvent: 78.0 parts by weight acetone • 1.5 parts by weight dimethylformamide
# as §1
# To produce a suitable preparation of active compound, 1 part by weight of active compound is mixed with the stated amount of solvents and is diluted with water, containing an emulsifier concentration of 1000 ppm, to the desired concentration. Further test concentrations are prepared by dilution with emulsifier containing water.
# Chinese cabbage (Brassica pekinensis) leaf disks infected with all instars of the green peach aphid (Myzus persicae), are sprayed with a preparation of the active ingredient of the desired concentration.
# After 5 days mortality in % is determined. 100% means all aphids have been killed and 0% means none of the aphids have been killed.
# [10] = system: Aedes aegypti strain MONHEIM; test: Aedes aegypti test (AEDSAE surface treatment & contact assay); conditions: 24 hours after contact, read-out: efficacy (mortality)
# Experimental: Aedes aegypti Test (AEDSAE Surface Treatment & Contact Assay)
# Solvent: Aceton+2000 ppm rapeseed oil methyl ester (RME)
# In order to produce a sufficient, active ingredient containing solution it is necessary to solve the test compound in the solvent-mix (acetone at 2 mg/ml/RME 2000 ppm). This solution is pipetted onto a glazed tile and after evaporation of the acetone, adult mosquitoes of the species Aedes aegypti strain MONHEIM are placed onto the dried surface. The exposure time is 30 minutes. Mortality in percent (%) is determined 24 hours after contact of the insects to the treated surface. 100% mortality means that all tested insects are dead, whereas 0% means that no insect died.
Compound,pest or weed control at 100 g/ha [1],pest or weed control at 500 g/ha [1],pest or weed control at 4 pg [2],pest or weed control at 0.02 mg [2],mortality at 100 ppm [3],mortality at 4 ppm [4],mortality at 100 g/ha [5],mortality at 500 g/ha [5],pest or weed control at 500 g/ha [6],pest or weed control at 100 g/ha ([7]; application rate 1 pg/cm^2 (=100 g/ha)),"pest or weed control at 5 µg/cm2, 500 g/ha ([7]; application rate 5 μg/cm^2 (=500 g/ha))",pest or weed control at 100 g/ha [6],mortality at 500 g/ha [8],mortality at 100 g/ha [9],mortality at 100 g/ha [8],"mortality at 4 mg/m2 ([10]; surface concentration 4 mg/m^2, exposure 30 minutes)","mortality at 20 mg/m2 ([10]; surface concentration 20 mg/m^2, exposure 30 minutes)",mortality at 500 g/ha ([9]; application rate 500 g/ha)
CC(NC(=O)c1cc(Cl)cc(S(C)(=O)=O)c1)c1nc(C(F)F)nn1-c1ccc(C#N)cn1 (stereo not drawn) [I-6],100%,100%,100%,100%,100%,100%,83%,100%,,,,,,,,,,
CCOc1nc([C@H](C)NC(=O)c2cc(Cl)cc(S(C)(=O)=O)c2)n(-c2ccc(C#N)cn2)n1 [I-9],100%,100%,100%,100%,100%,100%,100%,100%,100%,,,,,,,,,
CC(C)c1nc([C@H](C)NC(=O)c2cc(Cl)cc(S(C)(=O)=O)c2)n(-c2ccc(C#N)cn2)n1 [I-16],100%,100%,100%,100%,100%,100%,100%,,,100%,100%,80%,,,,,,
C[C@H](NC(=O)c1cc(Cl)cc(S(=O)(=O)CC(F)(F)F)c1)c1nc(C2CC2)nn1-c1ncc(Cl)cn1 [I-26],90%,90%,100%,100%,100%,90%,,,,,,100%,,,,,,
CC(NC(=O)c1cc(Cl)cc(S(C)(=O)=O)c1)c1nc(Br)nn1-c1ccc(Cl)cn1 (stereo not drawn) [I-28],100%,100%,100%,100%,100%,90%,100%,100%,100%,,,100%,100%,,,,,
CC(NC(=O)c1cc(Cl)cc(S(C)(=O)=O)c1)c1nc(I)nn1-c1ncccn1 (stereo not drawn) [I-41],,,,,,100%,,,,,,100%,,100%,100%,,,
CC(NC(=O)c1cc(Br)cc(C2(C(F)(F)F)CC2)c1)c1nc(Cl)nn1-c1ncccn1 (stereo not drawn) [I-47],90%,90%,100%,100%,80%,100%,100%,,,,,100%,,,,80 to 100%,80 to 100%,
CC(NC(=O)c1cc(Br)cc(C2(C(F)(F)F)CC2)c1)c1nc(Br)nn1-c1ncccn1 (stereo not drawn) [I-48],90%,90%,100%,,100%,100%,100%,,,,,,,,,,,
C[C@H](NC(=O)c1cc(F)cc(S(C)(=O)=O)c1)c1nc(C2CC2)nn1-c1ccc(C#N)cn1 [I-63],,,,,,100%,100%,,,,,100%,,90%,100%,,,
C[C@H](NC(=O)c1cc(F)cc(S(C)(=O)=O)c1)c1nc(C2CC2)nn1-c1ncc(Cl)cn1 [I-66],,,,,,100%,100%,,,,,100%,100%,100%,100%,,,100%
COc1nc([C@H](C)NC(=O)c2cc(Cl)cc(S(=O)(=O)C3CC3)c2)n(-c2ncc(Cl)cn2)n1 [I-79],,,,,,100%,100%,,,,,,100%,90%,90%,,,
COc1nc([C@H](C)NC(=O)c2cc(OC(F)(F)F)cc(S(=O)(=O)C3CC3)c2)n(-c2ncc(Cl)cn2)n1 [I-91],,,,,,,100%,,,,,100%,100%,90%,,,,
COc1nc([C@H](C)NC(=O)c2cc(C(F)F)cc(S(=O)(=O)C3CC3)c2)n(-c2ccc(Cl)cn2)n1 [I-94],,,,,,,100%,,,,,100%,100%,90%,,,,
